Publication PMC10412597, “Small molecule branched-chain ketoacid dehydrogenase kinase (BDK) inhibitors with opposing effects on BDK protein levels” (Nature Communications, 2023)

How the values were obtained:
Design in all cases: Cerep Bioprint off-target panel, functional receptor agonism or antagonism
Adenosine A1 Receptor = molecular target: T1, Adenosine A1 Receptor (Homo sapiens, UniProt P30542); conditions: agonist
T1 construct: gene ADORA1
Procedure: (§1) To discover a potent and selective BDK inhibitor, a subset of the Pfizer compound collection was screened. […] Off target activity was assessed in both CEREP and kinase panels (Supplementary Tables 2, 3).

Adenosine A2a Receptor = molecular target: T2, Adenosine A2a Receptor (Homo sapiens, UniProt P29274); conditions: agonist
T2 construct: gene ADORA2A
Procedure: as §1

[1] = molecular target: T3, Adrenergic Alpha 1a Adrenoceptor (Homo sapiens, UniProt P35348)
T3 construct: gene ADRA1A
T3 sequence (P35348 1-466): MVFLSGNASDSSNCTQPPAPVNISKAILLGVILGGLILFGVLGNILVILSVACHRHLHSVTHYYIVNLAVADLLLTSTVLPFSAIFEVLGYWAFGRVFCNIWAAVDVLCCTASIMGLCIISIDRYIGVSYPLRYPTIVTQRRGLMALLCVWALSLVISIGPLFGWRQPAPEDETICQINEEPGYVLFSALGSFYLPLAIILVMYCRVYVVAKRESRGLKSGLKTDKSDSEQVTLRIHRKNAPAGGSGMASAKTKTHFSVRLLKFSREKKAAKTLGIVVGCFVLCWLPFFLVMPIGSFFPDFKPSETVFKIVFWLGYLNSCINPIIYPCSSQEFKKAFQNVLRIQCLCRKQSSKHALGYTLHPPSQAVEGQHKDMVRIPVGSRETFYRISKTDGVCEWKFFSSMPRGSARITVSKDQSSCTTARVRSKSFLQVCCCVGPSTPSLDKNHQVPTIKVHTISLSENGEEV
Procedure: as §1

[2] = molecular target: T4, Adrenergic Beta 2 Adrenoceptor (Homo sapiens, UniProt P07550)
T4 construct: gene ADRB2
Procedure: as §1

Cannabinoid CB1 = molecular target: T5, Cannabinoid CB1 (Homo sapiens, UniProt P21554)
T5 construct: gene CNR1
Procedure: as §1

Cholecystokinin 2 = molecular target: T6, Cholecystokinin 2 (Homo sapiens, UniProt P32239); conditions: agonist
T6 construct: gene CCKBR
Procedure: as §1

[3] = molecular target: T7, Corticotrophin Releasing Factor 1 (CRF1) Receptor (Homo sapiens, UniProt P34998)
T7 construct: gene CRHR1
T7 sequence (P34998 1-415): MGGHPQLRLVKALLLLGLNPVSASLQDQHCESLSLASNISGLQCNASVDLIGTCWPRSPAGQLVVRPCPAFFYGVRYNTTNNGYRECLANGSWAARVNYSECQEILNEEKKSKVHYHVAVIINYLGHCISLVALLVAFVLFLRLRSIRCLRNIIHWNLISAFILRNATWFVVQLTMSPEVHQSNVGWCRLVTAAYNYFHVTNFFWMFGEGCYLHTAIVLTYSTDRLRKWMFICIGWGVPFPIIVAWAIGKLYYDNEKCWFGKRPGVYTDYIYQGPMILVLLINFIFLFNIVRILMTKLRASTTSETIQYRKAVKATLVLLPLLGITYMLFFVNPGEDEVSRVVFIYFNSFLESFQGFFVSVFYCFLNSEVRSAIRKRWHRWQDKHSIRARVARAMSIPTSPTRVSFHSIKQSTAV
Procedure: as §1

Delta Opioid Receptor = molecular target: T8, Delta Opioid Receptor (Homo sapiens, UniProt P41143); conditions: agonist
T8 construct: gene OPRD1
Procedure: as §1

Dopamine 2S = molecular target: T9, Dopamine 2S (Homo sapiens, UniProt P14416)
T9 construct: gene DRD2; short isoform (2S)
Procedure: as §1

Histamine H1 = molecular target: T10, Histamine H1 (Homo sapiens, UniProt P35367)
T10 construct: gene HRH1
Procedure: as §1

Histamine H2 = molecular target: T11, Histamine H2 (Homo sapiens, UniProt P25021); conditions: agonist
T11 construct: gene HRH2
Procedure: as §1

Kappa Opioid = molecular target: T12, Kappa Opioid (Homo sapiens, UniProt P41145); conditions: agonist
T12 construct: gene OPRK1
Procedure: as §1

[4] = molecular target: T13, Melanocortin MC2 Receptor (Homo sapiens, UniProt Q01718)
T13 construct: gene MC2R
Procedure: as §1

Mu Opiod = molecular target: T14, Mu Opiod (Homo sapiens, UniProt P35372); conditions: antagonist
T14 construct: gene OPRM1
Procedure: as §1

Neurokinin Nk1 = molecular target: T15, Neurokinin Nk1 (Homo sapiens, UniProt P25103); conditions: agonist
T15 construct: gene TACR1
Procedure: as §1

[5] = molecular target: T16, Serotonin 5-HT1a Receptor (Homo sapiens, UniProt P08908); conditions: agonist
T16 construct: gene HTR1A
Procedure: as §1

Serotonin 5-HT2b = molecular target: T17, Serotonin 5-HT2b (Homo sapiens, UniProt P41595); conditions: agonist
T17 construct: gene HTR2B
Procedure: as §1

Serotonin 5-HT4e = molecular target: T18, Serotonin 5-HT4e (Homo sapiens, UniProt Q13639); conditions: agonist
T18 construct: gene HTR4; isoform 4e
Procedure: as §1

T13 sequence (Q01718 whole entry): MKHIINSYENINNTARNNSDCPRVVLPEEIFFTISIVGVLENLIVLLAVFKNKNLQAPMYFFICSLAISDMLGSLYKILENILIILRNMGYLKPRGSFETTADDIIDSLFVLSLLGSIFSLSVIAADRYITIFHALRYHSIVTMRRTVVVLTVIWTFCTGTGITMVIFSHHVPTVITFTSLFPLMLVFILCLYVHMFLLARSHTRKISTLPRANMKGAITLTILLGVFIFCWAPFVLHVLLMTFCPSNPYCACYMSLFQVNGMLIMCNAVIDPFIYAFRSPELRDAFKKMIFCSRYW
T10 sequence (P35367 whole entry): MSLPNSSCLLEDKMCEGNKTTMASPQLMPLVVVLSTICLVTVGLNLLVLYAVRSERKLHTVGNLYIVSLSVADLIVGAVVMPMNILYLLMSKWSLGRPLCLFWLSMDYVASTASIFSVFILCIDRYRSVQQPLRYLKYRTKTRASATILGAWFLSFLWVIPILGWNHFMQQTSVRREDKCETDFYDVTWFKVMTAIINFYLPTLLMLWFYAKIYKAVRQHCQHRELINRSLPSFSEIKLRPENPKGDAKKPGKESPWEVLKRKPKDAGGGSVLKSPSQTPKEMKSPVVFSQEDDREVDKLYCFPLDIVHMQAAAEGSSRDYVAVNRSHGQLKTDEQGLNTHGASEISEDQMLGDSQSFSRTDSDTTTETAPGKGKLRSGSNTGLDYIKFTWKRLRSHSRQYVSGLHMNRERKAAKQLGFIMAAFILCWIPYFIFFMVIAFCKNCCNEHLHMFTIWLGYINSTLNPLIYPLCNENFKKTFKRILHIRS
T5 sequence (P21554 whole entry): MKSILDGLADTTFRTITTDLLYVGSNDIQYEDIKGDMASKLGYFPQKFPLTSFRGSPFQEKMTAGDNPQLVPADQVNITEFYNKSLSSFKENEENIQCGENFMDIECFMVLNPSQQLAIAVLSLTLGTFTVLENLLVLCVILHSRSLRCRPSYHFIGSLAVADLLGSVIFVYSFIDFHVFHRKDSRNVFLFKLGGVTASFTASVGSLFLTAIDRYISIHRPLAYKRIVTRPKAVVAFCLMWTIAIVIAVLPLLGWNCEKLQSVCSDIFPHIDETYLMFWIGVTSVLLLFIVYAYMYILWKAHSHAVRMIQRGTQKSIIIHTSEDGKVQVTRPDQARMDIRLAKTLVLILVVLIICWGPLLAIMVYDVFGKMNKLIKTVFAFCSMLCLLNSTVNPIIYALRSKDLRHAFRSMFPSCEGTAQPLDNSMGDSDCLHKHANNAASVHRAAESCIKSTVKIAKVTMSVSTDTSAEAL
T4 sequence (P07550 whole entry): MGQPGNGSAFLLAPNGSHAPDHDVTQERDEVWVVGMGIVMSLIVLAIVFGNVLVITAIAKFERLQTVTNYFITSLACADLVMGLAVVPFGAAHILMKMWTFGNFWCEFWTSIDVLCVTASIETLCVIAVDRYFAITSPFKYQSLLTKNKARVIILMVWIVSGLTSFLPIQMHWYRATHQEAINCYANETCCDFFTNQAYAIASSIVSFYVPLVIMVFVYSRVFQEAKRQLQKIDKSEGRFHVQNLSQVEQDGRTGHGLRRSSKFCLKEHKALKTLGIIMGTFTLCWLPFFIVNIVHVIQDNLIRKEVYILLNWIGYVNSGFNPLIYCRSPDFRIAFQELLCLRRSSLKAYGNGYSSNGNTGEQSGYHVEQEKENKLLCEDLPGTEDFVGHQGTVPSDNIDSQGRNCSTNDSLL
T9 sequence (P14416 whole entry, canonical isoform): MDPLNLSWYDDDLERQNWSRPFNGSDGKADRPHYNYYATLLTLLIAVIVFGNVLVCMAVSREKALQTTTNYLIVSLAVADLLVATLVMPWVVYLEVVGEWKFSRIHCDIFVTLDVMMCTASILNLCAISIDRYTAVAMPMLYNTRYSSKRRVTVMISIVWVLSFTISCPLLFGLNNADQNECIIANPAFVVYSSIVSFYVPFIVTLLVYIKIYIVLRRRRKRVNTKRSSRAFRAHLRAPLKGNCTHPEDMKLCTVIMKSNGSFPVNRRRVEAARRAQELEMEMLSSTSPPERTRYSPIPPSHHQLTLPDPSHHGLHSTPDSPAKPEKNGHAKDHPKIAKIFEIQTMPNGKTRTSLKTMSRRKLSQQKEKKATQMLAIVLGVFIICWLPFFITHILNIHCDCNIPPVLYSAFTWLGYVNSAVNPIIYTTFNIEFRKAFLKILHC
T17 sequence (P41595 whole entry): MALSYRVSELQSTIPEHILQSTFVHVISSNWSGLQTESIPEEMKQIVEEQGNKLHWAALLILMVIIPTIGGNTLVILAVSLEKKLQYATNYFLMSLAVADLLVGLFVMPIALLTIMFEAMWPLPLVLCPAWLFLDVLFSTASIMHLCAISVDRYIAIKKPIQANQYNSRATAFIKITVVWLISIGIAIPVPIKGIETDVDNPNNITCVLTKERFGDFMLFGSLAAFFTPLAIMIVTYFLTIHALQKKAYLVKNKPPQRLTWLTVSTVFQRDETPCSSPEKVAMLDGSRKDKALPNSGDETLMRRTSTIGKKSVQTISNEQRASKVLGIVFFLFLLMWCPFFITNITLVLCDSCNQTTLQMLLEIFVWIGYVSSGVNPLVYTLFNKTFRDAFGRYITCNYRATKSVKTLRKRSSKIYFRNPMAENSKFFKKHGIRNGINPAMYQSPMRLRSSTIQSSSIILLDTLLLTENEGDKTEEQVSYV
T16 sequence (P08908 whole entry): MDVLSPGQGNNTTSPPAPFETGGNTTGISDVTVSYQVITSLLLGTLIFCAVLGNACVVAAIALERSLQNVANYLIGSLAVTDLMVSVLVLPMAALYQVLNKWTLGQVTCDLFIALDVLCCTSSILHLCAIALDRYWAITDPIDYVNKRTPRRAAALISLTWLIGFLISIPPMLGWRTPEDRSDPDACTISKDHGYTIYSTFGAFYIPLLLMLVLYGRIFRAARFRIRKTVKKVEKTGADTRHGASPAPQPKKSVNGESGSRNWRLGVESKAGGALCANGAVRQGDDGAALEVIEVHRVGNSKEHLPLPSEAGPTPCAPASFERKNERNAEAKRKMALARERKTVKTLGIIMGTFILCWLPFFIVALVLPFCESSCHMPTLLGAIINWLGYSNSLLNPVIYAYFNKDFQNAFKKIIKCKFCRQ
T15 sequence (P25103 whole entry): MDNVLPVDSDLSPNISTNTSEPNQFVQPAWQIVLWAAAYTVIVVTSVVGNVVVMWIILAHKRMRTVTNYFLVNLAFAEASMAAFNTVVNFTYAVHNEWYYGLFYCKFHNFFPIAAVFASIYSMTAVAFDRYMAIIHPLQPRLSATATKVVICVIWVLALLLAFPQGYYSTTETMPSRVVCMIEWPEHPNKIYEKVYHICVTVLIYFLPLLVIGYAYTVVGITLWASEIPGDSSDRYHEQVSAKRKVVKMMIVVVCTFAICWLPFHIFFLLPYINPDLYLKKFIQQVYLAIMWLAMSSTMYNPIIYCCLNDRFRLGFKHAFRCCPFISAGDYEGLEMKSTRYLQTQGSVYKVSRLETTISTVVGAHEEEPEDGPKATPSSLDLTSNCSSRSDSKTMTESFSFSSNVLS
T18 sequence (Q13639 whole entry, canonical isoform): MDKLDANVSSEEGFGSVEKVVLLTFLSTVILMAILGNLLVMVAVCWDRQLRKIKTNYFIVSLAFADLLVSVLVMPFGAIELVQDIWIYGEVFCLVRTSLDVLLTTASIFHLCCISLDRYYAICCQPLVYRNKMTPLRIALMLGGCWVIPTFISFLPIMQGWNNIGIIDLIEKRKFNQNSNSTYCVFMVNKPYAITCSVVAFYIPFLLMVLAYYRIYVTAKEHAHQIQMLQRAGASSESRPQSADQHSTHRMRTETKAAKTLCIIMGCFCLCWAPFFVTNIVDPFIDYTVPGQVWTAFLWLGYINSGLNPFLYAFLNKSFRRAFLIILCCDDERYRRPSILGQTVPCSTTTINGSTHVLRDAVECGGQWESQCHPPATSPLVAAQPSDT
T2 sequence (P29274 whole entry): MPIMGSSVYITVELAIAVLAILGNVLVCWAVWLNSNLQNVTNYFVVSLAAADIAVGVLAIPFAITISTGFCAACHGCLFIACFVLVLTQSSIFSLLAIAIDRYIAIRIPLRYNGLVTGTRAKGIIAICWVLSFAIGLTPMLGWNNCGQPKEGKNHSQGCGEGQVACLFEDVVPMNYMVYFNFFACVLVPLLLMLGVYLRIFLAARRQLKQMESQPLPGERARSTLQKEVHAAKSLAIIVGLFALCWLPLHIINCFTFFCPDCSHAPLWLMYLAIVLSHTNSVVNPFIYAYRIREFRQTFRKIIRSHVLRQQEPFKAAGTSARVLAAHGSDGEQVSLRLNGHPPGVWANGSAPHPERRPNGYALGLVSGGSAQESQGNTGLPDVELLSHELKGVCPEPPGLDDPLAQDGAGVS
T14 sequence (P35372 whole entry): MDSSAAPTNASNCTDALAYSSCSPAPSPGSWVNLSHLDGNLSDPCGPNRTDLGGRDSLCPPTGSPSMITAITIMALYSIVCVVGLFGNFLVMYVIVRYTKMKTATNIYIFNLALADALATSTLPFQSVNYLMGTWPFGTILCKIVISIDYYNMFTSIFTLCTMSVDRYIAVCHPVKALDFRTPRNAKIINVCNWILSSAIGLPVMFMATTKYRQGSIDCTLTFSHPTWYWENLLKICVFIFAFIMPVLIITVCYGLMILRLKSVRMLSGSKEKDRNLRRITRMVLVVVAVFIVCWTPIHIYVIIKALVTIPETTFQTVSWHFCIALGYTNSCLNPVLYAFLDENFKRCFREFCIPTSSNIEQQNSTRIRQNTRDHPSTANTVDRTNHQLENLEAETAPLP

Question: With `CCC1(COc2ccc(-c3csc(-c4ccccc4C(=O)O)n3)cn2)CC1` [PF-07247685, 2-(4-{6-[(1-ethylcyclopropyl)methoxy]pyridin-3-yl}-1,3-thiazol-2-yl)benzoic acid] as the compound, how does the “% (agonism) PF-07247685” value (Adenosine A1 Receptor; 10 µM) read?
Answer: Its value is 0%.

Question: And the “% (agonism) PF-07247685” value (Adenosine A2a Receptor; 10 µM)?
Answer: The value was 1%.

Question: And the “% (agonism) PF-07247685” value ([1]; 10 µM, agonist)?
Answer: The value was 1%.

Question: What about the “% Inhibition (antagonism) PF-07247685” value ([1]; 10 µM, antagonist) of the same compound?
Answer: Its value is 14%.

Question: And the “% (agonism) PF-07247685” value ([2]; 10 µM, agonist)?
Answer: The value was -6%.

Question: And the “% Inhibition (antagonism) PF-07247685” value ([2]; 10 µM, antagonist)?
Answer: The value was 3%.

Question: What about the “% (agonism) PF-07247685” value (Cannabinoid CB1; 10 µM, agonist) of the same compound?
Answer: The value was 39%.

Question: And the “% Inhibition (antagonism) PF-07247685” value (Cannabinoid CB1; 10 µM, antagonist)?
Answer: The value was -4%.

Question: What about the “% (agonism) PF-07247685” value (Cholecystokinin 2; 10 µM) of the same compound?
Answer: The value was -8%.

Question: What about the “% (agonism) PF-07247685” value ([3]; 10 µM, agonist) of the same compound?
Answer: The value was 4%.

Question: And the “% Inhibition (antagonism) PF-07247685” value ([3]; 10 µM, antagonist)?
Answer: The value was 11%.

Question: And the “% (agonism) PF-07247685” value (Delta Opioid Receptor; 10 µM)?
Answer: The value was -1%.

Question: And the “% (agonism) PF-07247685” value (Dopamine 2S; 10 µM, agonist)?
Answer: Its value is -17%.

Question: And the “% Inhibition (antagonism) PF-07247685” value (Dopamine 2S; 10 µM, antagonist)?
Answer: Its value is -7%.

Question: What about the “% (agonism) PF-07247685” value (Histamine H1; 10 µM, agonist) of the same compound?
Answer: Its value is -5%.

Question: And the “% Inhibition (antagonism) PF-07247685” value (Histamine H1; 10 µM, antagonist)?
Answer: The value was -2%.

Question: What about the “% (agonism) PF-07247685” value (Histamine H2; 10 µM) of the same compound?
Answer: Its value is 1%.

Question: And the “% (agonism) PF-07247685” value (Kappa Opioid; 10 µM)?
Answer: The value was -7%.

Question: And the “% (agonism) PF-07247685” value ([4]; 10 µM, agonist)?
Answer: The value was 0%.

Question: And the “% Inhibition (antagonism) PF-07247685” value ([4]; 10 µM, antagonist)?
Answer: Its value is 18%.

Question: What about the “% Inhibition (antagonism) PF-07247685” value (Mu Opiod; 10 µM) of the same compound?
Answer: The value was -3%.

Question: And the “% (agonism) PF-07247685” value (Neurokinin Nk1; 10 µM)?
Answer: Its value is -4%.

Question: What about the “% (agonism) PF-07247685” value ([5]; 10 µM) of the same compound?
Answer: The value was -1%.

Question: And the “% (agonism) PF-07247685” value (Serotonin 5-HT2b; 10 µM)?
Answer: Its value is -5%.

Question: What about the “% (agonism) PF-07247685” value (Serotonin 5-HT4e; 10 µM) of the same compound?
Answer: The value was 0%.

Question: `O=C(O)c1sc2cc(F)sc2c1Cl` [PF-07208254, 3-chloro-5-fluorothieno[3,2-b]thiophene-2-carboxylic acid] was tested. Which “% (agonism) PF-07208254” value (Adenosine A1 Receptor; 100 µM) did it give?
Answer: The value was 0%.

Question: What about the “% (agonism) PF-07208254” value (Adenosine A2a Receptor; 100 µM) of the same compound?
Answer: The value was 0%.

Question: What about the “% (agonism) PF-07208254” value ([1]; 100 µM, agonist) of the same compound?
Answer: Its value is 8%.

Question: What about the “% Inhibition (antagonism) PF-07208254” value ([1]; 100 µM, antagonist) of the same compound?
Answer: The value was 21%.

Question: What about the “% (agonism) PF-07208254” value ([2]; 100 µM, agonist) of the same compound?
Answer: The value was -5%.

Question: What about the “% Inhibition (antagonism) PF-07208254” value ([2]; 100 µM, antagonist) of the same compound?
Answer: Its value is 10%.

Question: What about the “% (agonism) PF-07208254” value (Cannabinoid CB1; 100 µM, agonist) of the same compound?
Answer: Its value is 55%.

Question: And the “% Inhibition (antagonism) PF-07208254” value (Cannabinoid CB1; 100 µM, antagonist)?
Answer: Its value is -10%.

Question: What about the “% (agonism) PF-07208254” value (Cholecystokinin 2; 100 µM) of the same compound?
Answer: Its value is 0%.

Question: And the “% (agonism) PF-07208254” value ([3]; 100 µM, agonist)?
Answer: Its value is -2%.

Question: What about the “% Inhibition (antagonism) PF-07208254” value ([3]; 100 µM, antagonist) of the same compound?
Answer: The value was 39%.

Question: And the “% (agonism) PF-07208254” value (Delta Opioid Receptor; 100 µM)?
Answer: The value was -2%.

Question: What about the “% (agonism) PF-07208254” value (Dopamine 2S; 100 µM, agonist) of the same compound?
Answer: The value was -29%.

Question: And the “% Inhibition (antagonism) PF-07208254” value (Dopamine 2S; 100 µM, antagonist)?
Answer: Its value is -7%.

Question: And the “% (agonism) PF-07208254” value (Histamine H1; 100 µM, agonist)?
Answer: Its value is -1%.

Question: And the “% Inhibition (antagonism) PF-07208254” value (Histamine H1; 100 µM, antagonist)?
Answer: Its value is 17%.

Question: What about the “% (agonism) PF-07208254” value (Histamine H2; 100 µM) of the same compound?
Answer: Its value is 0%.

Question: What about the “% (agonism) PF-07208254” value (Kappa Opioid; 100 µM) of the same compound?
Answer: Its value is -3%.

Question: And the “% (agonism) PF-07208254” value ([4]; 100 µM, agonist)?
Answer: The value was 0%.

Question: What about the “% Inhibition (antagonism) PF-07208254” value ([4]; 100 µM, antagonist) of the same compound?
Answer: The value was -4%.

Question: What about the “% Inhibition (antagonism) PF-07208254” value (Mu Opiod; 100 µM) of the same compound?
Answer: Its value is 2%.

Question: And the “% (agonism) PF-07208254” value (Neurokinin Nk1; 100 µM)?
Answer: Its value is -3%.

Question: What about the “% (agonism) PF-07208254” value ([5]; 100 µM) of the same compound?
Answer: The value was -1%.

Question: And the “% (agonism) PF-07208254” value (Serotonin 5-HT2b; 100 µM)?
Answer: Its value is -5%.

Question: And the “% (agonism) PF-07208254” value (Serotonin 5-HT4e; 100 µM)?
Answer: The value was 6%.
